Among the data in patent US8026243B2, “[4,5′]Bipyrimidinyl-6,4′-diamine derivatives as protein kinase inhibitors” (Novartis AG, priority 2006, dated 2011) are GI50 values, retold here.

The target in the assay is T1, Ba/F3-TEL-FGFR3 cells (Homo sapiens, UniProt P22607).
T1 construct: fused on or other part: The N-terminal oligomerising part of TEL (ETV6) is fused before the intracellular kinase part of FGFR3; P41212 (Transcription factor ETV6)
The assay can be described thus: FGFR3 cellular assay: proliferation of transformed Ba/F3-TEL-FGFR3 cells (AlamarBlue). It counts as cell-based. The conditions noted are these: 48 hours incubation, class symbols. Summed up:
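Ba/F3-TEL-FGFR3 cells (5000/well) in RPMI 1640 with 10% FBS, exposed to twelve-point 1:3 compound dilutions for 48 h. Proliferation read by AlamarBlue (10% final, 4 h at 37 °C), fluorescence Ex530/Em580; IC50 from linear regression of percent inhibition.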
(In general: Resazurin is reduced to fluorescent resorufin, in cell work by metabolically active cells.)

SMILES strings stand for the structures.

T1 sequence (P22607 whole entry, change not shown, the tested form may be a part): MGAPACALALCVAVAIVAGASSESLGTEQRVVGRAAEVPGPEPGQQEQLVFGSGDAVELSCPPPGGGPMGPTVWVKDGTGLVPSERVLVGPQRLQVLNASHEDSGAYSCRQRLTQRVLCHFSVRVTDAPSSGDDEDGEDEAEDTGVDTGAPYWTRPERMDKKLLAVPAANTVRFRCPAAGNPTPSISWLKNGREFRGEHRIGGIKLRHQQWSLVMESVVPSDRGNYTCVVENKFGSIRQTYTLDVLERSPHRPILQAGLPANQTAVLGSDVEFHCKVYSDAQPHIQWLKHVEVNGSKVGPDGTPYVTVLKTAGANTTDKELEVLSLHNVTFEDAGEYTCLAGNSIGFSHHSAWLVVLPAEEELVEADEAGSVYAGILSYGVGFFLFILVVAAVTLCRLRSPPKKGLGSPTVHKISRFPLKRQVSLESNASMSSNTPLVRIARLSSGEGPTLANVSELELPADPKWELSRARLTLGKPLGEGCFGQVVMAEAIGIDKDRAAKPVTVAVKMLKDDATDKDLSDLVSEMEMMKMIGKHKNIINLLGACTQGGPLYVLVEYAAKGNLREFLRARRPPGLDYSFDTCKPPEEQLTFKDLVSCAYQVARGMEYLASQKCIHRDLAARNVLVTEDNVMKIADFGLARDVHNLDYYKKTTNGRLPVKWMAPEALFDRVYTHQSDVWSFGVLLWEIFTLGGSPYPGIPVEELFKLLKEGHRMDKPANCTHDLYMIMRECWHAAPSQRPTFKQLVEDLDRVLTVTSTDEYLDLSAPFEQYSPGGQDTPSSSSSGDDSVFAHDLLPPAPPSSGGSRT

For `COc1cc(OC)c(F)c(Nc2ncncc2-c2cc(Nc3ccc(CN4CCN(C(C)=O)CC4)cn3)ncn2)c1F` [Compound 66, 1-(4-{6-[4′-(2,6-Difluoro-3,5-dimethoxy-phenylamino)-[4,5′]bipyrimidinyl-6-ylamino]-pyridin-3-ylmethyl}-piperazin-1-yl)-ethanone], the GI50 – broadly, the concentration at which growth is held to half of that of the control – was under 100 nM.

`CCN(CC)Cc1ccc(Nc2cc(-c3cncnc3Nc3c(Cl)c(OC)cc(OC)c3Cl)ncn2)nc1` [Compound 28, N4′-(2,6-Dichloro-3,5-dimethoxy-phenyl)-N6-(5-diethylamino-methyl-pyridin-2-yl)-[4,5′]bipyrimidinyl-6,4′-diamine]: the GI50 is under 100 nM.

In turn, `COc1ccc(F)c(Nc2nccnc2-c2cc(Nc3ccc(CN4CCOCC4)cn3)ncn2)c1F` [Compound 104, {6-[3-(2,6-Difluoro-3-methoxy-phenylamino)-pyrazin-2-yl]-pyrimidin-4-yl}-N-(5-(morpholin-4-ylmethyl)-pyridin-2-yl)-amine] displayed a GI50 of under 100 nM.

`CCN1CCN(Cc2ccc(Nc3cc(-c4cncnc4Nc4c(F)c(OC)cc(OC)c4F)ncn3)nc2)CC1` [Compound 64, N4′-(2,6-Difluoro-3,5-dimethoxy-phenyl)-N6-[5-(4-ethyl-piperazin-1-ylmethyl)-pyridin-2-yl]-[4,5′]bipyrimidinyl-6,4′-diamine] yielded a GI50 of under 100 nM.

`CCNC(=O)c1cc(OC)c(Cl)c(Nc2ncncc2-c2cc(Nc3ccc(N4CCN(CC)CC4)cn3)ncn2)c1Cl` [Compound 42, 2,4-Dichloro-N-ethyl-3-{6-[5-(4-ethyl-piperazin-1-yl)-pyridin-2-ylamino]-[4,5′]bipyrimidinyl-4′-ylamino}-5-methoxy-benzamide] had a GI50 of under 100 nM.

Turning to `CCNC(=O)c1cc(OC)c(Cl)c(Nc2ncncc2-c2cc(Nc3ccc(CN4CCOCC4)cn3)ncn2)c1Cl` [Compound 24, 2,4-Dichloro-N-ethyl-5-methoxy-3-[6-(5-morpholin-4-ylmethyl-pyridin-2-ylamino)-[4,5′]bipyrimidinyl-4′-ylamino]-benzamide], the GI50 is under 100 nM.

The compound `CCONC(=O)c1cc(OC)c(Cl)c(Nc2ncncc2-c2cc(Nc3ccc(CN4CCOCC4)cn3)ncn2)c1Cl` [Compound 25, 2,4-Dichloro-N-ethoxy-5-methoxy-3-[6-(5-morpholin-4-ylmethyl-pyridin-2-ylamino)-[4,5′]bipyrimidinyl-4′-ylamino]-benzamide] had a GI50 of under 100 nM.

As for `COc1cc(OC)c(Cl)c(Nc2ncncc2-c2cc(NCCN3CCN(C)CC3)ncn2)c1Cl` [Compound 14, N4′-(2,6-Dichloro-3,5-dimethoxy-phenyl)-N6-[2-(4-methyl-piperazin-1-yl)-ethyl]-[4,5′]bipyrimidinyl-6,4′-diamine], the GI50 fell in the range of 250 to 500 nM.

For the compound `COc1cc(OC)c(Cl)c(Nc2ncncc2-c2cc(Nc3ccc(CN4CCN(CCO)CC4)cn3)ncn2)c1F` [Compound 73, 2-(4-{6-[4′-(2-Chloro-6-fluoro-3,5-dimethoxy-phenylamino)-[4,5′]bipyrimidinyl-6-ylamino]-pyridin-3-ylmethyl}-piperazin-1-yl)-ethanol], the concentration for 50% growth inhibition (GI50) was under 100 nM.

`COc1cc(C(=O)NC2CC2)c(Cl)c(Nc2ncncc2-c2cc(Nc3ccc(CN4CCN(C(C)=O)CC4)cn3)ncn2)c1Cl` [Compound 67, 3-{6-[5-(4-Acetyl-piperazin-1-ylmethyl)-pyridin-2-ylamino]-[4,5′]bipyrimidinyl-4′-ylamino}-2,4-dichloro-N-cyclopropyl-5-methoxy-benzamide] gave a GI50 of under 100 nM.

On to `CCN1CCN(c2ccc(Nc3cc(-c4cncnc4Nc4c(Cl)c(OC)cc(OC)c4Cl)ncn3)nc2)CC1` [Compound 40, N4′-(2,6-Dichloro-3,5-dimethoxy-phenyl)-N6-[5-(4-ethyl-piperazin-1-yl)-pyridin-2-yl]-[4,5′]bipyrimidinyl-6,4′-diamine], for which the GI50 is under 100 nM.

In the case of `COc1cc(OC)c(Cl)c(Nc2ncncc2-c2cc(Nc3cc(CN4CCOCC4)ccn3)ncn2)c1Cl` [Compound 5, N4′-(2,6-Dichloro-3,5-dimethoxy-phenyl)-N6-(4-morpholin-4-ylmethyl-pyridin-2-yl)-[4,5′]bipyrimidinyl-6,4′-diamine], the GI50 was under 100 nM.

`COc1cc(OC)c(F)c(Nc2ncncc2-c2cc(Nc3ccc(C(C)O)cn3)ncn2)c1F` (stereo not drawn) [Compound 80, 1-{6-[4′-(2,6-Difluoro-3,5-dimethoxy-phenylamino)-[4,5′]bipyrimidinyl-6-ylamino]-pyridin-3-yl}-ethanol] gave a concentration for 50% growth inhibition (GI50) of under 100 nM.

The compound `COc1cc(OC)c(Cl)c(Nc2nccnc2-c2cc(Nc3ccc(CN4CCN(C(=O)CO)CC4)cn3)ncn2)c1Cl` [Compound 101] gave a GI50 of under 100 nM.

Consider `COc1cc(OC)c(Cl)c(Nc2ncncc2-c2cc(Nc3ccc(CN4CCCC4)cn3)ncn2)c1Cl` [Compound 2, N4′-(2,6-Dichloro-3,5-dimethoxy-phenyl)-N6-(5-pyrrolidin-1-ylmethyl-pyridin-2-yl)-[4,5′]bipyrimidinyl-6,4′-diamine], for which the GI50 is under 100 nM.

Consider `COc1cc(Nc2ncncc2-c2cc(Nc3ccc(CN4CCN(CCO)CC4)cn3)ncn2)c(F)c(OC)c1` [Compound 70, 2-(4-{6-[4′-(2-Fluoro-3,5-dimethoxy-phenylamino)-[4,5′]bipyrimidinyl-6-ylamino]-pyridin-3-ylmethyl}-piperazin-1-yl)-ethanol], for which the GI50 was under 100 nM.

`COc1cc(OC)c(Cl)c(Nc2ncncc2-c2cc(Nc3ccc(CCN4CCOCC4)cn3)ncn2)c1C` [Compound 86, N4′-(2-Chloro-3,5-dimethoxy-6-methyl-phenyl)-N6-[5-(2-morpholin-4-yl-ethyl)-pyridin-2-yl]-[4,5′]bipyrimidinyl-6,4′-diamine] registered a GI50 of 250 to 500 nM.

For the compound `CCN1CCN(c2ccc(Nc3cc(-c4cncnc4Nc4c(C)c(OC)cc(OC)c4Cl)ncn3)nc2)CC1` [Compound 48, N4′-(2-Chloro-3,5-di-methoxy-6-methyl-phenyl)-N6-[5-(4-ethyl-piperazin-1-yl)-pyridin-2-yl]-[4,5′]bipyrimidinyl-6,4′-diamine], the GI50 was under 100 nM.

For `COc1cc(OC)c(Cl)c(Nc2ncncc2-c2cc(NC(=O)NCCN3CCN(C)CC3)ncn2)c1Cl` [Compound 8, 1-[4′-(2,6-Dichloro-3,5-dimethoxy-phenylamino)-[4,5′]bipyrimidinyl-6-yl]-3-[2-(4-methyl-piperazin-1-yl)-ethyl]-urea], the 50% growth inhibitory concentration (GI50) fell in the range of 100 to 250 nM.

With `COc1cc(OC)c(Cl)c(Nc2ncncc2-c2cc(Nc3ccc(CN4CCN(C(C)=O)CC4)cn3)ncn2)c1Cl` [Compound 16, 1-(4-{6-[4′-(2,6-Dichloro-3,5-dimethoxy-phenylamino)-[4,5′]bipyrimidinyl-6-ylamino]-pyridin-3-ylmethyl}-piperazin-1-yl)-ethanone], the GI50 was under 100 nM.

For the compound `COc1cc(Nc2ncncc2-c2cc(Nc3ccc(CN4CCOCC4)cn3)ncn2)c(F)c(OC)c1` [Compound 68, N4′-(2-Fluoro-3,5-dimethoxy-phenyl)-N6-(5-morpholin-4-ylmethyl-pyridin-2-yl)-[4,5′]bipyrimidinyl-6,4′-diamine], the GI50 was under 100 nM.
